Converted amounts (≈) assume the structure as drawn. Read-outs that look alike come from different tables or passages of the source.
Legend:
[1] = tested on: major human CYP isoforms other than CYP3A (midazolam substrate); assay: Cytochrome P450 inhibition panel; conditions: human recombinant CYP enzymes in microsomal preparations
Procedure: Cytochrome P450 inhibition was assessed in vitro using human recombinant enzymes in microsomal preparations. […] Enzyme activity was quantified by monitoring formation of substrate-specific metabolites, and percent inhibition was calculated relative to vehicle control.

A. baumannii strain AYE = assay: Time-kill assay; assay type: cell-based; conditions: 4 × MIC
Procedure: Time-kill assays were performed as defined previously.

Enterococcus gallinarum = assay: MIC (microbroth dilution); assay type: cell-based; conditions: VanC (ATCC 49608)
Outline: (§1)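 Broth microdilution MICs were run in tryptic soy broth, or for Streptococcus spp. in cation-adjusted Mueller Hinton broth with 2.5% lysed horse blood, using overnight stationary-phase cultures back-diluted. MIC was the lowest concentration with no visible growth, with OD600 also read. Some MICs included PMBN at 30 μg/mL final.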

Streptococcus salivarius = assay: MIC (microbroth dilution); assay type: cell-based; conditions: ATCC13419, ATCC 13419
Outline: as §1

Streptococcus mutans = assay: MIC (microbroth dilution); assay type: cell-based; conditions: ATCC25175, ATCC 25175
Outline: as §1

Streptococcus oralis = assay: MIC (microbroth dilution); assay type: cell-based; conditions: ATCC9811, ATCC 9811
Outline: as §1

[2] = tested on: Staphylococcus saprophyticus; assay: MIC (microbroth dilution); assay type: cell-based; conditions: ATCC15305, ATCC 15305
Outline: as §1

Streptococcus pneumoniae = assay: MIC (microbroth dilution); assay type: cell-based; conditions: for MIC: Streptococcus pneumoniae
Outline: as §1

Streptococcus sanguinis = assay: MIC (microbroth dilution); assay type: cell-based; conditions: ATCC10556, ATCC 10556
Outline: as §1

[3] = tested on: Streptococcus intermedius; assay: MIC (microbroth dilution); assay type: cell-based; conditions: ATCC29663, ATCC 29663
Outline: as §1

[4] = tested on: S. oralis, S. mutans, S. salivarius, S. sanguinis, and S. pyogenes; assay: MIC, extended Gram-positive panel (grouped species); assay type: cell-based, Streptococcus spp.
Procedure: All bacteria were maintained on tryptic soy agar (TSA), except Streptococcus spp., which were maintained on Columbia agar plates containing 5% horse blood. All bacterial assays were carried out in tryptic soy broth (TSB), except for Streptococcus spp. which were grown in cation-adjusted Mueller Hinton broth containing 2.5% lysed horse blood. Bacteria were grown to stationary phase in liquid culture overnight, with shaking at 200 rpm, before being back diluted to the relevant starting concentration for each assay below. MICs were measured by the microbroth dilution method. […] Absorbance at OD600 was read on a CLARIOstar spectrophotometer (BMG Labtech) and the MIC was defined as the minimum concentration of compound where no visible growth was detected. The compounds were prepared as a DMSO stock and equivalent concentrations of DMSO had no effect on bacterial growth. MICs were also performed in the presence of the outer membrane permeator, polymyxin b nonapeptide (PMBN) following the same MIC method but with the following variation. The 2-fold dilution series of compound was prepared as above, then 50 μL of PMBN at a final concentration of 30 μg/mL was added to relevant wells, while 50 μL/well of blank media was added to the remaining wells. Bacteria were then added at 50 μL/well for a starting concentration as above. […] The MICs were read and defined as above. […]

In the case of `C[C@H]1COc2c(N3CC[C@@H](Nc4ncccn4)C3)c(F)cc3c(=O)c(C(=O)O)cn1c23` [Compound 46, (S)-9-Fluoro-3-methyl-7-oxo-10-((R)-3-(pyrimidin-2-ylamino)pyrrolidin-1-yl)-2,3-dihydro-7H-[1,4]oxazino[2,3,4-ij]quinoline-6-carboxylic acid], the inhibition at 10 µM [1] is reported as no more than 13% and the time-kill profile (A. baumannii strain AYE) is reported as “rapid bactericidal activity”.
`Cc1cc(C)nc(N[C@@H]2CCN(c3c(F)cc4c(=O)c(C(=O)O)cn5c4c3OC[C@@H]5C)C2)n1` [Compound 50, (S)-10-((R)-3-((4,6-Dimethylpyrimidin-2-yl)amino)pyrrolidin-1-yl)-9-fluoro-3-methyl-7-oxo-2,3-dihydro-7H-[1,4]oxazino[2,3,4-ij]quinoline-6-carboxylic acid] gave an MIC (Enterococcus gallinarum; Enterococcus gallinarum, ATCC 49608 / GALLINARUM, read-out: MIC) of 0.25 µg/mL (≈ 0.551 µM), an MIC (Enterococcus gallinarum) of 0.25 µg/mL (≈ 0.551 µM) and an MIC (Streptococcus salivarius) of 0.25 µg/mL (≈ 0.551 µM). For the same compound, the MIC (Streptococcus mutans) was 0.03 µg/mL (≈ 0.0662 µM), the MIC (Streptococcus oralis) was 0.25 µg/mL (≈ 0.551 µM) and the MIC [2] was 0.06 µg/mL (≈ 0.132 µM). It also gave an MIC (Streptococcus pneumoniae; ATCC6301) of 0.125 µg/mL (≈ 0.276 µM), an MIC (Streptococcus pneumoniae; ATCC49619) of 0.125 µg/mL (≈ 0.276 µM) and an MIC (Streptococcus pneumoniae; ATCC51916) of 0.125 µg/mL (≈ 0.276 µM). The MIC (Streptococcus pneumoniae; ATCC700669, ST 23F (ATCC 700669), read-out: MIC) was 0.06 µg/mL (≈ 0.132 µM), the MIC (Streptococcus pneumoniae; ATCC700673, MDR (ATCC 700673), read-out: MIC) was 0.06 µg/mL (≈ 0.132 µM) and the MIC (Streptococcus pneumoniae; ATCC700675, ATCC 700675, read-out: MIC) was 0.06 µg/mL (≈ 0.132 µM). The MIC (Streptococcus pneumoniae; ATCC700676) was 0.125 µg/mL (≈ 0.276 µM), the MIC (Streptococcus pneumoniae; ATCC 700677 / PRSP, PRSP (ATCC 700677), read-out: MIC) was 0.06 µg/mL (≈ 0.132 µM) and the MIC (Streptococcus pneumoniae; PRSP (TM532), read-out: MIC) was 0.06 µg/mL (≈ 0.132 µM). For the same compound, the “MIC range” value (Streptococcus pneumoniae; including MDR and PRSP strains) was 0.06 to 0.125 µg/mL, the MIC (Streptococcus sanguinis) was 0.25 µg/mL (≈ 0.551 µM) and the MIC [3] was 0.03 µg/mL (≈ 0.0662 µM). The “MIC range” value [4] was 0.03 to 0.25 µg/mL.

— article PMC13266999, “Designing Antibiotics with Inherent Resistance to Efflux as a Strategy to Revive Discovery against Multidrug-Resistant Pathogens” (Journal of Medicinal Chemistry, 2026)
